What was measured:
[1] = system: C57BL/6J mice; assay: Contextual fear conditioning (associative learning) in wild type mice; type: in vivo; conditions: for associative learning, contextual fear conditioning paradigm: wildtype mice, chronic treatment for 10-21 days
Excerpt: Learning tests: All behavioral testing is described in Fischer et al. (3).
Mechanism underlying EE. Other than a few genes involved in synaptic function, relatively little is known about the mechanism underlying EE (12-14). Since histone acetylation, an epigenetic mechanism regulating gene expression via chromatin remodeling, has recently been implicated in synaptic plasticity and learning behavior (15-18), the induction of a transcriptional program by EE that leads to activation of plasticity genes was evaluated. Wild type mice were subjected to EE and hippocampal and cortical brain lysates were obtained 3, 24 h or 2 weeks later (n=3/group) by acid extraction and probed with antibodies detecting histone-tail modification that indicate active chromatin. Increases in hippocampal H3 (K-9, K14) and H4 (K-5) and in cortical H3 (K-9) and H4 (K-5) acetylation were observed. […] No changes in H4 acetylation were observed when the Ac-H4 (K,8,12,16) antibody was used, which is likely due to the fact that H4-K16 is a marker of condensed chromatin. EE induced hippocampal and cortical histone 3 (H3) and histone 4 (H4) acetylation and […] as soon as 3 hours after treatment (FIGS. 3a, b). […] To investigate whether inhibition of HDACs mimics the effects of EE, SB was administered daily [ip] into wild type mice for 4 weeks (FIG. 3c). […] Two days after the last injection mice were trained in the fear conditioning paradigm. […] Locomotor activity or basal anxiety was not altered in SB-injected mice (FIG. 8c).
The effect of sodiumbutyrate injection on learning, basal anxiety, explorative behavior and brain plasticity. C57BL/6J mice were subjected to fear conditioning and injected intraperitoneally [ip] with 1.2 g/kg sodiumbutyrate (SB, n=8) or saline (vehicle; n=8) immediately afterwards. […] C57BL/6J mice were implanted with microcannulae into the lateral brain ventricles (icv) and injected with either 100 ng SB, 50 ng TSA or vehicle immediately after fear conditioning (n=8/group). […] C57BL/6J were daily injected [ip] with SB or saline (n=8/group) for 4 weeks before all mice were subjected to the elevated plus maze and open field test. […] Immunoblots were quantified relative to the optical density of the vehicle-group (set to 1). […] The analysis was performed as described under FIG. 1g.
(§1) The effects of SAHA and MS-275, relative to sodium butyrate (SB), on the hippocampus dependent associative learning in wildtype mice.
Mice were injected 10 days with either 5 mg/kg of MS275 or 25 mg/kg of UW_WT-I—06 or UW_WT-I—05 before training and memory tests as described above. […] Andorfer, C. et al. Cell-cycle reentry and cell death in transgenic mice expressing nonmutant human tau isoforms. J neurosci 25, 5446-5454 (2005). • 2. Santacruz, K. et al. Tau suppression in a neurodegenerative mouse model improves memory function. Science 309, 476-481 (2005). • 3. Fischer, A., Sananbenesi, F., Pang, P. T., Lu, B. & Tsai, L. H. Opposing roles of transient and prolonged expression of p25 in synaptic plasticity and hippocampus-dependent memory. Neuron 48, 825-838 (2005). • 4. Cruz, J. C. & Tsai, L. H. Jekyll and Hyde kinase: roles for Cdk5 in brain development and disease. Curr Opin Neurobiol. 14, 390-394 (2004). • 5. Cruz, J. C., Tseng, H. C., Goldman, J. A., Shih, H. & Tsai, L. H. Aberrant Cdk5 activation by p25 triggers pathological events leading to neurodegeneration and neurofibrillary tangles. Neuron 40, 471-83 (2003). • 6. Nithianantharajah, J. & Hannan, A. J. Enriched environments, experience-dependent plasticity and disorders of the nervous system. Nat Rev Neurosci 7, 697-709 (2006). • 7. Kim, J. J. & Fanselow, M. S. Modality-specific retrograde amnesia of fear. Science 256, 675-7 (1992). • 8. Gilmore, E. C. & Herrup, K. Neocortical cell migration: GABAergic neurons and cells in layers I and VI move in a cyclin-dependent kinase 5-independent manner. J Neurosci 21, 9690-700 (2001). • 9. […]

[2] = system: lys9lys 14 on histone 3 and lys5 on histone 4; assay: Histone acetylation in brain lysates of treated mice; type: in vivo; conditions: compared to saline treated mice
Experimental: Immunoblotting and staining: Lysates for immunoblotting were prepared as described by Fischer et al. (3). To isolate histones, brain tissue was homogenized in TX-buffer (50 mM Tris HCL, 150 mM NACL, 2 mM EDTA, 1% Triton-100) and incubated at 4° C. for 15 min prior to centrifugation at 200 rpm for 10 min. After a wash-step in TX-buffer the pellet was dissolved in TX-buffer containing 0.2M HCl and incubated on ice for 30 min, before a second centrifugation at 10000 rpm for 10 min. The supernatant was either dialysed or directly used for immunoblotting. Antibodies were used in 1:1000 concentrations. All antibodies detecting histones and anti-PSD-95 were form Upstate (Lake Placid, N.Y.). Anti-synaptophysin (SVP38) was from Sigma. Anti-neuronal nuclei (neuN) and anti-growth associated protein (Gap43) were from Chemicon (Temecula, Calif.) and anti-N-cadherin, anti-β-catenin were from Santa Cruz (Santa Cruz, Calif.). Immunostaining was performed as described by Fischer et al. (3). Antibodies mentioned above were used in a 1:500 dilution. Anti-MAP-2 antibody (Sigma) was used in a 1:200 dilution.
as §1

[3] = system: dentate gyrus; assay: Neurogenesis in dentate gyrus (BrdU, DCX); parameters: species or system mice; conditions: mouse, in vivo
Excerpt: (§2) HDAC inhibitors regulate neuronal activity and neurogenesis in dentate gyrus. […] Thus, activity induced c-fos expression may also be used to evaluate the effect of HDAC inhibitors on hippocampus dependent learning. FIG. 17d is a bar graph depicting the significant enhancement by SAHA.

[4] = system: c-fos; assay: c-fos positive cells after fear conditioning training; type: in vivo, mice; conditions: compared to saline treated group
Excerpt: as §2

Row | Structure (SMILES) | freezing behavior during the memory test ([1]; icv 100 ng SB or 50 ng TSA immediately after fear conditioning, test 24 h later, P<0.0001) | associative learning ([1]; wild type mice, intraperitoneal [ip] and intracerebroventricular [icv] injections) | associative learning, contextual fear conditioning paradigm [1] | acetylation of lys9lys 14 on histone 3 and lys5 on histone 4 in brain lysates [2] | DCX (marker for newly generated neurons) labeled cells in dentate gyrus [3] | number of c-fos positive cells [4] | BrdU positive cells in the subgranule zone of the dentate gyrus [3]
1 | CC(/C=C/C(=O)NO)=C\[C@@H](C)C(=O)c1ccc(N(C)C)cc1 [TSA, trichostatin A] | more freezing behavior than vehicle injected mice | significantly facilitated associative learning |  |  |  |  | 
2 | Nc1ccccc1NC(=O)c1ccc(CNC(=O)OCc2cccnc2)cc1 [MS-275] |  |  | does not facilitate associative learning | increased acetylation of lys9lys 14 on histone 3 and lys5 on histone 4 | not | lower number of c-fos positive cells | 
3 | O=C(CCCCCCC(=O)Nc1ccccc1)NO [SAHA, suberoylanilide hydroxamic acid] |  |  | more potent than SB in facilitating associative learning | increased acetylation of lys9lys 14 on histone 3 and lys5 on histone 4 | labeled more cells | higher number of c-fos positive cells | increased BrdU positive cells

— US8088951B2, “Epigenetic mechanisms re-establish access to long-term memory after neuronal loss” (Massachusetts Institute of Technology, priority 2006, dated 2012)
